# Source: ChEMBL document CHEMBL3885881, “DrugMatrix”
# Assays:
# [1] = organism: Rattus norvegicus; test: DrugMatrix - Regimen: Daily Repeat; format: toxicity, organism-based, Sprague-Dawley; parameters: regimen Daily Repeat, gender Male, age 6-8 weeks; details: in vivo, po, 1200 mg/kg, route oral GAVAGE, dose level High, vehicle .5 % CMC
# [2] = organism: Rattus norvegicus; format: toxicity, organism-based, Sprague-Dawley; details: in vivo, po, 1200 mg/kg, 24 h, route oral GAVAGE, dose level High, time 1 day, vehicle .5 % CMC
# Description: DrugMatrix - Regimen: Single
# [3] = […], tissue Plasma, time 14 day
smiles,measurement,setting,value
Nc1ccc(Cl)cc1[N+](=O)[O-] [4-CHLORO-2-NITROANILINE],URIC ACID,"[1]; 120 h, tissue Plasma, time 5 day",1.5 mg/dL
same,ABSOLUTE BASOPHIL,"[1]; […], tissue Blood, time 14 day",0 CELLS/uL
same,ABSOLUTE EOSINOPHIL,"[1]; […], tissue Blood, time 14 day",305.4 CELLS/uL
same,ABSOLUTE LYMPHOCYTE,"[1]; […], tissue Blood, time 14 day",16745.4 CELLS/uL
same,ABSOLUTE MONOCYTE,"[1]; […], tissue Blood, time 14 day",700 CELLS/uL
same,ABSOLUTE SEGMENTED NEUTROPHIL,"[1]; […], tissue Blood, time 14 day",2009.2 CELLS/uL
same,BASOPHIL,"[1]; […], tissue Blood, time 14 day",0%
same,EOSINOPHIL,"[1]; […], tissue Blood, time 14 day",1.6%
same,ERYTHROCYTE COUNT,"[1]; […], tissue Blood, time 14 day",6.12 x10E6/uL
same,HEMATOCRIT,"[1]; […], tissue Blood, time 14 day",34.88%
same,HEMOGLOBIN,"[1]; […], tissue Blood, time 14 day",12.64 G/DL
same,LEUKOCYTE COUNT,"[1]; […], tissue Blood, time 14 day",19.76 x10E3/uL
same,LYMPHOCYTE,"[1]; […], tissue Blood, time 14 day",84.4%
same,MEAN CORPUSCULAR HEMOGLOBIN,"[1]; […], tissue Blood, time 14 day",20.64 pg
same,MEAN CORPUSCULAR HEMOGLOBIN CONCENTRATION,"[1]; […], tissue Blood, time 14 day",36.24 G/DL
same,MEAN CORPUSCULAR VOLUME,"[1]; […], tissue Blood, time 14 day",56.98 fL
same,MONOCYTE,"[1]; […], tissue Blood, time 14 day",3.4%
same,NEUTROPHIL,"[1]; […], tissue Blood, time 14 day",10.6%
same,NUCLEATED RED BLOOD CELLS,"[1]; […], tissue Blood, time 14 day",0 /100WBC
same,PLATELET COUNT,"[1]; […], tissue Blood, time 14 day",1103.4 x10E3/uL
same,ALANINE AMINOTRANSFERASE,[1]; [3],58.8 u/L
same,ALBUMIN,[1]; [3],4.18 G/DL
same,ALKALINE PHOSPHATASE,[1]; [3],347.4 u/L
same,ASPARTATE AMINOTRANSFERASE,[1]; [3],113.2 u/L
same,BLOOD UREA NITROGEN,[1]; [3],20 mg/dL
same,CARBON DIOXIDE,[1]; [3],28 mmol/L
same,CHLORIDE,[1]; [3],100.8 MEQ/L
same,CHOLESTEROL,[1]; [3],80.8 mg/dL
same,CREATININE,[1]; [3],0.27 mg/dL
same,GLUCOSE,[1]; [3],164.4 mg/dL
same,LACTATE DEHYDROGENASE,[1]; [3],192 u/L
same,LIPASE,[1]; [3],10.8 u/L
same,PHOSPHORUS,[1]; [3],12.48 mg/dL
same,POTASSIUM,[1]; [3],6.05 MEQ/L
same,SODIUM,[1]; [3],146.34 MEQ/L
same,TOTAL BILIRUBIN,[1]; [3],0.3 mg/dL
same,TOTAL PROTEIN,[1]; [3],6.3 G/DL
same,URIC ACID,[1]; [3],1.32 mg/dL
same,ABSOLUTE EOSINOPHIL,[2]; tissue Blood,51.67 CELLS/uL
same,ABSOLUTE LYMPHOCYTE,[2]; tissue Blood,11963.33 CELLS/uL
same,ABSOLUTE MONOCYTE,[2]; tissue Blood,476.67 CELLS/uL
same,ABSOLUTE SEGMENTED NEUTROPHIL,[2]; tissue Blood,1508.33 CELLS/uL
same,BASOPHIL,[2]; tissue Blood,0%
same,EOSINOPHIL,[2]; tissue Blood,0.33%
same,ERYTHROCYTE COUNT,[2]; tissue Blood,5.85 x10E6/uL
same,HEMATOCRIT,[2]; tissue Blood,35.7%
same,HEMOGLOBIN,[2]; tissue Blood,12.97 G/DL
same,LEUKOCYTE COUNT,[2]; tissue Blood,14 x10E3/uL
same,LYMPHOCYTE,[2]; tissue Blood,85.67%
same,MEAN CORPUSCULAR HEMOGLOBIN,[2]; tissue Blood,22.17 pg
same,MEAN CORPUSCULAR HEMOGLOBIN CONCENTRATION,[2]; tissue Blood,36.3 G/DL
same,MEAN CORPUSCULAR VOLUME,[2]; tissue Blood,61.07 fL
same,MONOCYTE,[2]; tissue Blood,3.33%
same,NEUTROPHIL,[2]; tissue Blood,10.67%
same,NUCLEATED RED BLOOD CELLS,[2]; tissue Blood,0 /100WBC
same,PLATELET COUNT,[2]; tissue Blood,1137 x10E3/uL
same,ALANINE AMINOTRANSFERASE,[2]; tissue Plasma,71.67 u/L
same,ALBUMIN,[2]; tissue Plasma,4.2 G/DL
same,ALKALINE PHOSPHATASE,[2]; tissue Plasma,484 u/L
same,ASPARTATE AMINOTRANSFERASE,[2]; tissue Plasma,114 u/L
same,BLOOD UREA NITROGEN,[2]; tissue Plasma,15 mg/dL
same,CARBON DIOXIDE,[2]; tissue Plasma,23.33 mmol/L
same,CHLORIDE,[2]; tissue Plasma,101.33 MEQ/L
same,CHOLESTEROL,[2]; tissue Plasma,86.33 mg/dL
same,CREATININE,[2]; tissue Plasma,0.27 mg/dL
same,GLUCOSE,[2]; tissue Plasma,219 mg/dL
same,LACTATE DEHYDROGENASE,[2]; tissue Plasma,411.33 u/L
same,LIPASE,[2]; tissue Plasma,10 u/L
same,PHOSPHORUS,[2]; tissue Plasma,14.33 mg/dL
same,POTASSIUM,[2]; tissue Plasma,6.09 MEQ/L
same,SODIUM,[2]; tissue Plasma,142.83 MEQ/L
same,TOTAL BILIRUBIN,[2]; tissue Plasma,0.2 mg/dL
same,TOTAL PROTEIN,[2]; tissue Plasma,6.2 G/DL
same,URIC ACID,[2]; tissue Plasma,2.73 mg/dL
